These results are taken from patent US8778932B2, “Dihydro-oxazolobenzodiazepinone compounds, a process for there preparation and pharmaceutical compositions containing them” (Les Laboratoires Servier, priority 2011, dated 2014).

Assay [1] has as its target HEK-293 cells stably expressing the subunit α5 of the human GABAA receptor, and also the subunits beta2 (short) and gamma2 (long) (Homo sapiens (Human), UniProt P31644). In words: GABAA receptor activity study (membrane potential, FMP marker, FlexStation3). Type of assay: cell-based. As to conditions: 40 min preincubation, then GABA, read-out: alpha5 IC50. How it is done: (§1) The compounds are tested on HEK-293 (Human Embryonic Kidney) cells stably expressing the subunit α5 of the human GABAA receptor, and also the subunits beta2 (short) and gamma2 (long). The cells are maintained in the presence of a selection of three antibiotics—neomycin, zeocin and puromycin—in a Dulbecco medium (DMEM) containing 10% (v/v) foetal bovine serum. On the day before the experiment, the cells are transferred to 96-well plates (in a density of 50,000 cells/well). The cells are then preincubated for 40 minutes with the compounds under test and are treated with GABA. The membrane potential is monitored using a blue FMP marker (Molecular Devices), following the instructions of the manufacturer. The responses are recorded for 120 seconds on a FlexStation3 plate reader (Molecular Devices, USA). The IC50 values of the tested compounds are determined by curve adjustment obtained by non-linear regression using SoftMax Pro software (Molecular Devices, USA).

Assay [2] concerns male NMRI mice. In words: Test for recognition of new objects, in the mouse. It is filed as in vivo. The note with it: i.p. As for the experimental part: This test measures non-spatial working memory in the rodent. It is based on the natural tendency of the animal to spend more time exploring a new object than a familiar object.
On Day 0 (familiarisation phase), male NMRI mice are placed in a black PVC box (32×45×27 cm) without an object, for 2.5 minutes. On the first day the mice are free to explore two identical objects for 3 minutes (acquisition phase). On the second day one of the objects is replaced by a new object and the duration of exploration is timed for each object over a period of 4 minutes (retention phase). Pretreatment with the compounds of the invention is carried out by the i.p. route on the day of the acquisition phase. The duration of exploration is measured by the TSE System software (TSE System GmbH, Bad Homburg, Germany),

The subject of the next assay is rats. The assay can be described thus: Radial maze test in the rat (ketamine-induced memory deficit). It is filed as in vivo. As to conditions: dose-dependent from 0.3 to 3 mg/kg p.o., ketamine 10 mg/kg i.p., FIG. 4. An excerpt: This test is widely used to evaluate working and referential memory in the rodent. The apparatus consists of a small central octagonal platform from which there radiate eight different, equally spaced corridors. At the end of each corridor there is food, which is not visible from the central platform. In the experiment, all the corridors contain a reward and the animal has to visit each of the corridors just once. Each further visit is considered an error.
On the first day of the experiment the rats are deprived of food for 24 hours. Learning starts on the following day. The rats are placed on the central platform of the maze, each of the eight corridors having been provided with food. The animals are free to eat the food in the eight corridors. If a rat has not eaten all of the food within 20 minutes, it is withdrawn from the maze.
The experiments are continued once a day until the animals attain the determined objective, namely obtaining a total number of errors—that is to say, of any further visits to a corridor—of less than 3. These animals are included in the rest of the study. On the last day, the selected rats are treated p.o. with ketamine (10 mg/kg i.p.) co-administered either with a carrier or with a compound of the invention. The tests start 120 minutes after administration. Each test lasts a maximum of 5 minutes.

The subject of assay [3] is male NMRI mice. The assay can be described thus: Occlusion of the middle cerebral artery (MCA) in the mouse. Type of assay: in vivo. As to conditions: doses of 1, 3 and 10 mg/kg i.p., 30 minutes after MCA occlusion, FIG. 5. How it is done: Permanent focal cerebral ischaemia is produced by electrocoagulation of the left MCA (according to the method of Welsh F A et al., J. Neurochem. 1987, 49, 846-851). Male NMRI mice are anaesthetised using 2,2,2-tribromoethanol (500 mg/kg i.p., 20 ml/kg). An incision is made in the left temporo-parietal region of the head between the orbit and the ear. The temporal muscle is then incised and folded back to expose the skull. A small trepanation hole is drilled in the outer lateral part of the skull just to the level of the MCA, and the trunk of the MCA is then occluded by electrocoagulation.
The compounds of the invention are administered by the i.p. route 30 minutes after occlusion of the MCA. Two days later, the animals are deeply anaesthetised using sodium pentobarbital (60 mg/kg i.p., 10 ml/kg) perfused through the heart with a 4% 2,3,5-triphenyltetrazolium chloride solution. The animals are finally decapitated, and the brains are extracted and placed for at least 24 hours in a saline solution containing 8% formaldehyde. Measurement of the necrosed surface area is determined using an image analysis system (DigiCell for Windows 4.0).

The target in assay [4] is HEK-293 cells stably expressing the subunit α5 of the human GABAA receptor, and also the subunits beta2 (short) and gamma2 (long) (Homo sapiens (Human), UniProt P18507+P31644+P47870). The assay can be described thus: GABAA receptor activity study (membrane potential, FMP marker, FlexStation3). Type of assay: cell-based. The note with it: 40 min preincubation, then GABA, read-out: alpha5 IC50. How it is done: as §1
Sequence of HEK-293 cells stably expressing the subunit α5 of the human GABAA receptor, and also the subunits beta2 (short) and gamma2 (long) (Homo sapiens (Human), UniProt P18507+P31644+P47870) (P31644 32-462): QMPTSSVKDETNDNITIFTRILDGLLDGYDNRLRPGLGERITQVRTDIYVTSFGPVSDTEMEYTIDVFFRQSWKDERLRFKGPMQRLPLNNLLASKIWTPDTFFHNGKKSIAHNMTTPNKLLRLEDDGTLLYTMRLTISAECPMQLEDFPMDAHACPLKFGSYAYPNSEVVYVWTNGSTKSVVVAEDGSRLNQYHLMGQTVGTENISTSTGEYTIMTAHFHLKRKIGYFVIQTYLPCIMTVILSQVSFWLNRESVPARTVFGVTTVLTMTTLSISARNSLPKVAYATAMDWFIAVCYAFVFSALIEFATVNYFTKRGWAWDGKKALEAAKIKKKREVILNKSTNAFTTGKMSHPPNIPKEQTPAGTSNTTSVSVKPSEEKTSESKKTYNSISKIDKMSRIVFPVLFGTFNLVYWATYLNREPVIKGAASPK
Sequence of HEK-293 cells stably expressing the subunit α5 of the human GABAA receptor, and also the subunits beta2 (short) and gamma2 (long) (Homo sapiens (Human), UniProt P18507+P31644+P47870) (P47870 25-512 partner): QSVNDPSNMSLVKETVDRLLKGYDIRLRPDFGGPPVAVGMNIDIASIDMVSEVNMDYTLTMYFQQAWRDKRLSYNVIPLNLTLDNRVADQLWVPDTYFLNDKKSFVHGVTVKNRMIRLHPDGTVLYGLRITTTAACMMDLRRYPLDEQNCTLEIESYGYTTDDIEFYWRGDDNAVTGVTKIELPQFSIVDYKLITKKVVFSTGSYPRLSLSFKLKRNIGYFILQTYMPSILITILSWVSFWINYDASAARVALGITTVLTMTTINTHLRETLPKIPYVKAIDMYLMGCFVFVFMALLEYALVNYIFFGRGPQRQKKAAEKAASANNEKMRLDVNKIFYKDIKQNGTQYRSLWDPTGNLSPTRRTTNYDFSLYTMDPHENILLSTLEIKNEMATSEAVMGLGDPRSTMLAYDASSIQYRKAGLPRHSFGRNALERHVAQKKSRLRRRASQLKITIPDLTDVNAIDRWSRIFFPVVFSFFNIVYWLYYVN
Sequence of HEK-293 cells stably expressing the subunit α5 of the human GABAA receptor, and also the subunits beta2 (short) and gamma2 (long) (Homo sapiens (Human), UniProt P18507+P31644+P47870) (P18507 40-475 partner): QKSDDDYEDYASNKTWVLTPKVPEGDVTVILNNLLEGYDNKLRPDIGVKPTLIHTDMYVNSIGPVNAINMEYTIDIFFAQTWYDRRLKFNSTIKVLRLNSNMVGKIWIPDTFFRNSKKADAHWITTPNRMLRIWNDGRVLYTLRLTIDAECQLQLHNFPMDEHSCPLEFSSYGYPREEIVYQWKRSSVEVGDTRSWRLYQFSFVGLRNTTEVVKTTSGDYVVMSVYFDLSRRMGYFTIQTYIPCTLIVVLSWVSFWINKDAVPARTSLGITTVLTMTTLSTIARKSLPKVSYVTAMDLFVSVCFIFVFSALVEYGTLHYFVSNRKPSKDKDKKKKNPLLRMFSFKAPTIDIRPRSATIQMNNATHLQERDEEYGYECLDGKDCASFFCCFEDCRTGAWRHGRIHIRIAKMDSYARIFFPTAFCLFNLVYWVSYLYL

Structures are written as SMILES.

Sequence of HEK-293 cells stably expressing the subunit α5 of the human GABAA receptor, and also the subunits beta2 (short) and gamma2 (long) (Homo sapiens (Human), UniProt P31644) (P31644 32-462): as the sequence (P31644 32-462) above
Sequence of HEK-293 cells stably expressing the subunit α5 of the human GABAA receptor, and also the subunits beta2 (short) and gamma2 (long) (Homo sapiens (Human), UniProt P31644) (P47870 25-512 partner): as the sequence (P47870 25-512 partner) above
Sequence of HEK-293 cells stably expressing the subunit α5 of the human GABAA receptor, and also the subunits beta2 (short) and gamma2 (long) (Homo sapiens (Human), UniProt P31644) (P18507 40-475 partner): as the sequence (P18507 40-475 partner) above

For `CC1=NN=C(c2cc3ccc(F)cc3s2)c2cc3oc(=O)[nH]c3cc2C1` [Example 36, 5-(6-fluoro-1-benzothien-2-yl)-8-methyl-1,9-dihydro-2H-[1,3]oxazolo[4,5-h][2,3]benzodiazepin-2-one], the IC50 (usually the point on the concentration scale where inhibition reaches its midpoint) in assay [1] worked out at 100 nM. Moreover, in the assay with male NMRI mice [2] (dose of 10 mg/kg, FIG. 3), the “procognitive effect in the object recognition model” value (from here on “procognitive effect”) is given as “significant precognitive effect”.
Turning to `CC1=NN=C(c2sc3cccc(C(F)(F)F)c3c2Cl)c2cc3oc(=O)[nH]c3cc2C1` [Example 9, 5-[3-chloro-4-(trifluoromethyl)-1-benzothien-2-yl]-8-methyl-1,9-dihydro-2H-[1,3]oxazolo[4,5-h][2,3]benzodiazepin-2-one], in assay [1], the half-inhibitory concentration (IC50) turned out to be 250 nM.
`CC1=NN=C(c2cc3c(F)cccc3s2)c2cc3oc(=O)[nH]c3cc2C1` [Example 21, 5-(4-fluoro-1-benzothien-2-yl)-8-methyl-1,9-dihydro-2H-[1,3]oxazolo[4,5-h][2,3]benzodiazepin-2-one]: the IC50 in assay [1] amounted to 200 nM. The “procognitive effect” value in the assay with male NMRI mice [2] (doses of 0.01, 0.03 and 0.1 mg/kg, FIG. 1) was “significant procognitive effect”. Also, the “reversal of ketamine-induced referential memory deficit” value with rats is “significantly reverses the ketamine-induced referential memory deficit”. Further, the “inhibition of cerebral damage (necrosed surface area)” value with male NMRI mice [3] is “significantly inhibits cerebral damage”.
As for `CC1=NN=C(c2cc3cccc(F)c3s2)c2cc3oc(=O)[nH]c3cc2C1` [Example 40, 5-(7-fluoro-1-benzothien-2-yl)-8-methyl-1,9-dihydro-2H-[1,3]-oxazolo[4,5-h][2,3]benzodiazepin-2-one], the concentration for half-maximal inhibition (IC50) in assay [4] was found to be 227 nM.
With `CC1=NN=C(c2cc3ccccc3s2)c2cc3oc(=O)[nH]c3cc2C1` [Example 6, 5-(1-benzothien-2-yl)-8-methyl-1,9-dihydro-2H-[1,3]oxazolo[4,5-h][2,3]benzodiazepin-2-one], the IC50 in assay [1] came out at 130 nM.
Take `CC1=NN=C(c2ccc3ncccc3c2)c2cc3oc(=O)[nH]c3cc2C1` [Example 5, 8-methyl-5-(6-quinolyl)-1,9-dihydro-2H-[1,3]oxazolo[4,5-h][2,3]-benzodiazepin-2-one]: the half-maximal inhibitory concentration (IC50) in assay [4] is 430 nM.
As for `CC1=NN=C(c2cc3c(C(F)(F)F)cccc3s2)c2cc3oc(=O)[nH]c3cc2C1` [Example 31, 8-methyl-5-[4-(trifluoromethyl)-1-benzothien-2-yl]-1,9-dihydro-2H-[1,3]oxazolo[4,5-h][2,3]benzodiazepin-2-one], the IC50 in assay [1] was determined as 500 nM. In the assay with male NMRI mice [2] (dose of 1 mg/kg, FIG. 2), the “procognitive effect” value is given as “significant procognitive effect”.
On to `CC1=NN=C(c2cc3cc(Cl)ccc3s2)c2cc3oc(=O)[nH]c3cc2C1` [Example 32, 5-(5-chloro-1-benzothien-2-yl)-8-methyl-1,9-dihydro-2H-[1,3]-oxazolo[4,5-h][2,3]benzodiazepin-2-one], for which the IC50 in assay [4] turned out to be 172 nM.
